The values below come from PubChem BioAssay (NCI).

Values joined by “and” are separate entries in the source; they are usually repeats but may differ in a detail not shown here. Equal entries are not always repeated.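 Each compound was tested at five concentrations against cells in 96-well plates for 48 hours. The concentration for 50% growth inhibition is given as GI50. Definition used: TGI = concentration required for complete inhibition of growth.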

Among the test systems are HCT-116 colon; HOP-62 NSCLC; KM12 colon; MDA-MB-231 breast; MOLT-4 leukemia; NCI-H522 lung; RXF 393 renal; SN12C renal; UACC-257 melanoma; CCRF-CEM leukemia.
What all share (assay): NCI-60 cell line screen, 48 h

Consider `OCCCN=C1CCCCC1`, for which the TGI in the assay on HCT-116 colon, with HOP-62 NSCLC, in the assay with KM12 colon, with MDA-MB-231 breast, in the assay with MOLT-4 leukemia and with NCI-H522 lung was more than 100 µM in each case. The TGI with RXF 393 renal, in the assay on SN12C renal and in the assay on UACC-257 melanoma was more than 100 µM throughout.
For `Fc1ccccc1CN1COc2c(cc(Cl)c3cccnc23)C1`, the TGI in the assay with HCT-116 colon is 13.2 µM; in the assay on HOP-62 NSCLC, 16.6 µM; in the assay with KM12 colon it was 12.1 µM; in the assay with MDA-MB-231 breast it was 4.3 µM; in the assay with MOLT-4 leukemia, 0.758 µM; with NCI-H522 lung it was 14.1 µM. The TGI is 63.6 µM in the assay on RXF 393 renal, 1.57 µM in the assay with SN12C renal and 8.73 µM with UACC-257 melanoma.
As for `COC(=O)[C@@]12OC[C@]34[C@H]([C@@H](O)[C@@H]1O)[C@@]1(C)CC(=O)C(O)=C(C)[C@@H]1C[C@H]3OC(=O)[C@H](OC(=O)/C=C(\C)C(C)C)[C@@H]24`, the GI50 in the assay on CCRF-CEM leukemia is 0.00224 µM; with MDA-MB-231 breast it was 0.0228 µM. The TGI with CCRF-CEM leukemia is 0.0184 µM and 0.182 µM; with HCT-116 colon it was 0.0144 µM and 0.0478 µM; in the assay on HOP-62 NSCLC it was 0.0342 µM and < 0.011 µM and 0.0216 µM; in the assay on KM12 colon, 0.03 µM and 0.146 µM and 0.0574 µM; in the assay with MDA-MB-231 breast, 0.0822 µM and 0.0757 µM; in the assay with NCI-H522 lung, 0.00723 µM. The TGI with RXF 393 renal was 0.0303 µM and 0.0297 µM; in the assay with SN12C renal, 0.0582 µM and 0.0317 µM and 0.102 µM; in the assay on UACC-257 melanoma, 0.0316 µM and 0.0305 µM.
For `CN(C)CCCN1c2ccccc2Sc2ccc(C(F)(F)F)cc21`, the GI50 is 1.92 µM in the assay on CCRF-CEM leukemia; 1.64 µM in the assay with HCT-116 colon; 1.65 µM with KM12 colon; 1.45 µM in the assay with MDA-MB-231 breast; 1.86 µM in the assay on MOLT-4 leukemia; 1.39 µM in the assay on NCI-H522 lung. Also, the GI50 with RXF 393 renal was 1.32 µM; in the assay with SN12C renal, 1.66 µM; with UACC-257 melanoma, 1.62 µM. Also, the TGI in the assay on CCRF-CEM leukemia was 5 µM and 38.5 µM and 39 µM; in the assay with HCT-116 colon, 3.13 µM and 28.5 µM and 27.2 µM; with MDA-MB-231 breast, 2.9 µM and 26.5 µM; with MOLT-4 leukemia, 4.19 µM and 39.2 µM; with SN12C renal, 3.62 µM and 32.2 µM and 29.5 µM; in the assay on UACC-257 melanoma, 3.49 µM and 29.5 µM and 26.7 µM.
In the case of `CC(C)(O)C1COC2=C1C(=O)c1ccccc1C2=O` (centres undefined), the TGI with CCRF-CEM leukemia was more than 100 µM; with HCT-116 colon, 66.9 µM; in the assay with KM12 colon, more than 100 µM; in the assay on MDA-MB-231 breast it was more than 100 µM; in the assay on MOLT-4 leukemia, 71.2 µM; with NCI-H522 lung it was more than 100 µM. Moreover, the values for the TGI in the assay on SN12C renal and in the assay with UACC-257 melanoma were 77.8 µM and more than 100 µM, respectively.
Take `O=c1ccc(N=Nc2ccccc2)ccc1O`: the TGI in the assay with HCT-116 colon turned out to be 26 µM; in the assay with HOP-62 NSCLC it was 24.4 µM; with KM12 colon it was 24.9 µM; with MDA-MB-231 breast, 36.9 µM; with MOLT-4 leukemia, 25.1 µM; in the assay on NCI-H522 lung, 56.3 µM. The TGI in the assay with RXF 393 renal was more than 100 µM; in the assay with SN12C renal it was 34.6 µM; with UACC-257 melanoma, 51.7 µM.
As to `O=S(=O)(c1ccccc1)N1CCCC(c2ccccc2)CC1` (centres undefined), the TGI in the assay on CCRF-CEM leukemia is more than 100 µM; in the assay with HCT-116 colon, more than 100 µM; in the assay with KM12 colon it was more than 100 µM; with MDA-MB-231 breast, more than 100 µM; with MOLT-4 leukemia, 69.1 µM; with NCI-H522 lung it was more than 100 µM. For the same molecule, the TGI in the assay with RXF 393 renal, in the assay on SN12C renal and with UACC-257 melanoma was more than 100 µM in each case.
As for `O=C1C(Cl)=C(Nc2ccc(S(=O)(=O)c3ccc(NC4=C(Cl)C(=O)c5ccccc5C4=O)cc3)cc2)C(=O)c2ccccc21`, the GI50 with CCRF-CEM leukemia was 1.9 µM; in the assay on HCT-116 colon it was 1.2 µM; with HOP-62 NSCLC it was 2.14 µM; with KM12 colon, 2.17 µM; in the assay with MDA-MB-231 breast it was 1.61 µM; in the assay on MOLT-4 leukemia it was 1.87 µM. Besides, the GI50 in the assay with RXF 393 renal was 1.6 µM; with UACC-257 melanoma it was 1.92 µM. The TGI is more than 100 µM in the assay with CCRF-CEM leukemia; 2.49 µM in the assay on HCT-116 colon; 6.52 µM in the assay on HOP-62 NSCLC; 5.38 µM in the assay on KM12 colon; 3.51 µM in the assay on MDA-MB-231 breast; 5.86 µM with MOLT-4 leukemia. Besides, the TGI in the assay with RXF 393 renal came to 2.96 µM; in the assay on UACC-257 melanoma, 3.48 µM.
With `COc1cc(N=Nc2cc(Cc3ccc(N(C)C)cc3)c(N)cc2N(C)C)c2ncccc2c1`, the GI50 in the assay on CCRF-CEM leukemia is 0.126 µM; in the assay on HCT-116 colon it was 0.0426 µM; in the assay on KM12 colon, 0.646 µM; in the assay with MDA-MB-231 breast, 0.512 µM; in the assay with MOLT-4 leukemia, 0.185 µM; with NCI-H522 lung it was 0.398 µM. Further, the GI50 in the assay on RXF 393 renal was 1.08 µM; in the assay on SN12C renal, 0.649 µM; in the assay on UACC-257 melanoma, 0.438 µM. Further, the TGI was found to be 2.29 µM in the assay on CCRF-CEM leukemia; 1.19 µM in the assay on HCT-116 colon; 2.31 µM with KM12 colon; 2.17 µM with MDA-MB-231 breast; 1.22 µM with MOLT-4 leukemia; 2.23 µM with NCI-H522 lung. In addition, the TGI is 2.49 µM in the assay on RXF 393 renal, 2.32 µM with SN12C renal and 5.22 µM in the assay on UACC-257 melanoma.
As to `CCCCCCCCCCCC/C=C\CC[C@@H](O)[C@H](O)CC[C@H](O)[C@@H]1CC[C@@H](CCCCCCCC2=C[C@H](C)OC2=O)O1`, the GI50 in the assay on CCRF-CEM leukemia is 6.82 µM; with HCT-116 colon it was 0.231 µM; with KM12 colon, 12.9 µM; in the assay on MDA-MB-231 breast it was 12.4 µM; in the assay with MOLT-4 leukemia it was 1.72 µM; in the assay on SN12C renal it was 13 µM. The GI50 in the assay on UACC-257 melanoma was 1.94 µM. The TGI is more than 100 µM in the assay with CCRF-CEM leukemia; 27.1 µM with HCT-116 colon; 46 µM in the assay with KM12 colon; 35.3 µM in the assay with MDA-MB-231 breast; 4.88 µM in the assay on MOLT-4 leukemia; 25.9 µM with NCI-H522 lung. Besides, the TGI is 37.8 µM in the assay on RXF 393 renal; 31 µM in the assay with SN12C renal; 4.21 µM and 19.6 µM in the assay with UACC-257 melanoma.
For `COC1C(OC(=O)c2ccc(C)[nH]2)C(O)C(Oc2ccc3c(O)c(NC(=O)c4ccc(O)c(CC=C(C)C)c4)c(=O)oc3c2Cl)OC1(C)C` (centres undefined), the TGI came out at 58.9 µM in the assay with CCRF-CEM leukemia; 33.1 µM in the assay on HCT-116 colon; 33.4 µM with HOP-62 NSCLC; 26.1 µM with KM12 colon; 49.4 µM with MDA-MB-231 breast; 45.8 µM in the assay on MOLT-4 leukemia. For the same molecule, the TGI was 29.8 µM in the assay on NCI-H522 lung, 53.2 µM in the assay on SN12C renal and more than 100 µM in the assay with UACC-257 melanoma.
